Settings: 298.15 K

SMILES: c1ccc2c(c1)c1ccccc1n2-c1ccc(-c2ccc(-n3c4ccccc4c4ccccc43)cc2)cc1
- solubility (mole fraction) (in acetone): 0.000153
- solubility (mole fraction) (in acetonitrile): 7.54e-06
- solubility (mole fraction) (in chlorobenzene): 0.00491
- solubility (mole fraction) (in chloroform): 0.0083
- solubility (mole fraction) (in ethanol): 2.25e-06
- solubility (mole fraction) (in n-hexane): 9.41e-06
- solubility (mole fraction) (in tetrachloromethane): 0.000997

SMILES: c1ccc2cc3ccccc3cc2c1
- solubility (mole fraction) (in acetone): 0.00318
- solubility (mole fraction) (in acetonitrile): 0.000765
- solubility (mole fraction) (in chlorobenzene): 0.00946
- solubility (mole fraction) (in chloroform): 0.00995
- solubility (mole fraction) (in ethanol): 0.000428
- solubility (mole fraction) (in n-hexane): 0.0012
- solubility (mole fraction) (in tetrachloromethane): 0.00481

SMILES: c1ccc2cc3cc4ccccc4cc3cc2c1
- solubility (mole fraction) (in acetone): 3.27e-05
- solubility (mole fraction) (in acetonitrile): 7.97e-06
- solubility (mole fraction) (in chlorobenzene): 0.00014
- solubility (mole fraction) (in chloroform): 0.000132
- solubility (mole fraction) (in ethanol): 6.91e-06
- solubility (mole fraction) (in n-hexane): 1.5e-05
- solubility (mole fraction) (in tetrachloromethane): 4.61e-05

SMILES: c1ccc(N(c2ccc(-c3ccc(N(c4ccccc4)c4cccc5ccccc45)cc3)cc2)c2cccc3ccccc23)cc1
- solubility (mole fraction) (in acetone): 2.11e-05
- solubility (mole fraction) (in acetonitrile): 1.56e-06
- solubility (mole fraction) (in chlorobenzene): 0.00131
- solubility (mole fraction) (in chloroform): 0.00268
- solubility (mole fraction) (in ethanol): 5.59e-07
- solubility (mole fraction) (in n-hexane): 3.15e-06
- solubility (mole fraction) (in tetrachloromethane): 0.000234

SMILES: O=C(O)c1cccnc1Nc1cccc(C(F)(F)F)c1
- solubility (mole fraction) (in acetone): 0.0288
- solubility (mole fraction) (in acetonitrile): 0.00131
- solubility (mole fraction) (in chlorobenzene): 0.000297
- solubility (mole fraction) (in chloroform): 0.00166
- solubility (mole fraction) (in ethanol): 0.0138
- solubility (mole fraction) (in n-hexane): 5.35e-06
- solubility (mole fraction) (in tetrachloromethane): 7.06e-05

SMILES: COc1ccc2c(c1)c(CC(=O)O)c(C)n2C(=O)c1ccc(Cl)cc1
- solubility (mole fraction) (in acetone): 0.0234
- solubility (mole fraction) (in acetonitrile): 0.00239
- solubility (mole fraction) (in chlorobenzene): 0.0023
- solubility (mole fraction) (in chloroform): 0.00876
- solubility (mole fraction) (in cyclohexane): 1.87e-05
- solubility (mole fraction) (in ethanol): 0.00441
- solubility (mole fraction) (in ethyl acetate): 0.0111
- solubility (mole fraction) (in ethylene glycol): 0.000509
- solubility (mole fraction) (in isopropanol): 0.00465
- solubility (mole fraction) (in methanol): 0.00228
- solubility (mole fraction) (in n-heptane): 6.13e-07
- solubility (mole fraction) (in n-hexane): 4.84e-07
- solubility (mole fraction) (in n-pentane): 3.31e-07
- solubility (mole fraction) (in n-propanol): 0.00433
- solubility (mole fraction) (in tetrachloromethane): 4.2e-05
- solubility (mole fraction) (in toluene): 0.000908

SMILES: c1cc2cccc3c4cccc5cccc(c(c1)c23)c54
- solubility (mole fraction) (in acetone): 0.000301
- solubility (mole fraction) (in acetonitrile): 4.68e-05
- solubility (mole fraction) (in chlorobenzene): 0.00177
- solubility (mole fraction) (in chloroform): 0.00134
- solubility (mole fraction) (in ethanol): 2.42e-05
- solubility (mole fraction) (in n-hexane): 5.53e-05
- solubility (mole fraction) (in tetrachloromethane): 0.000444

From BigSolDB 2.1
